Data reported in US20250352595A1, “PHARMACEUTICAL, FOOD, OR FEED COMPOSITION FOR PREVENTING OR TREATING MUSCLE LOSS CONTAINING RHODODENDRON MUCRONULATUM EXTRACT” (DR. OREGONIN INC., priority 2022, published 2025).

System: 3T3-L1 cells
Test: Adipocyte differentiation (fat accumulation) measurement by Oil Red-O staining
Format: cell-based, mouse
Conditions: for adipocyte differentiation inhibitory activity depending on the treatment concentration: 3T3-L1 cells, Oil Red O staining; for inhibition at 20 µg/mL: Mus musculus, 20 μg/ml, the highest concentration in the experiment, 3T3-L1 differentiation, Oil Red O, read-out: effect of inhibiting adipogenesis
Description: 3T3-L1 cells, a mouse-derived preadipocyte, were purchased from the Korean Cell Line Bank and used. 3T3-L1 cells were cultured in a 37° C.-wet CO2 incubator (5% CO2/95% air) using a cell culture medium (complete DMEM culture medium) in which 10% bovine calf serum (BCF), 100 units/mL penicillin, and 100 μg/mL streptomycin were added to a DMEM medium (Welgene). When the cells were 80% full of the culture dish, the cell monolayer was washed with phosphate buffer saline (PBS, pH 7.4), and then the cells were detached by adding trypsin-2.65 mM EDTA and subcultured, and the medium was exchanged every 2 days.
3T3-L1 cells were seeded onto 24-well plate at a concentration of 1×10^5 cells/well. After the cells reached the confluence state, the cell culture medium was sequentially exchanged with three kinds of differentiation-inducing cultures (DM), and the cells were cultured to induce differentiation into adipocytes. That is, the cell culture medium was exchanged with a differentiation-inducing culture medium in which DMI (1 μM dexamethasone, 0.5 mM 3-isobutyl-1-methylxanthine (IBMX), […]) was added to a DMEM medium containing 10% FBS to stimulate differentiation for 2 days. After 2 days, the cells were exchanged for a new differentiation-inducing culture medium in which 5 μg/mL insulin was added to DMEM medium containing 10% FBS to stimulate differentiation for another 2 days. After stimulating differentiation for a total of 4 days, cells were maintained in DMEM medium containing 10% FBS for 2 days to induce differentiation into adipocytes.
In order to investigate the effect of the test substance on adipocyte differentiation, the test substance was added to the differentiation-inducing culture medium and treated on the cells.
After treatment with the test substance while inducing differentiation of 3T3-L1 cells, the cells were rinsed with DPBS (Welgene), and then the cells were fixed at room temperature for 1 hour by adding 4% paraformaldehyde (PFA, Biosesang). After the cells were fixed, the cells were treated with oil red O (Sigma-Aldrich) solution and stained at room temperature for 1 to 2 hours. After observing the staining degree of adipocytes visually, the cells were rinsed with distilled water and observed for adipocytes through a microscope.

SMILES | adipocyte differentiation inhibitory activity depending on the treatment concentration | inhibition at 20 µg/mL
O=C1c2c(O)cc(O)cc2O[C@H](c2ccc(O)c(O)c2)[C@H]1OC1OC[C@@H](O)[C@@H](O)[C@@H]1O (stereo partly drawn) [Taxifolin-3-O-arabinopyranoside, taxifolin-3-O-α-L-arabinopyranoside] | increases in a concentration-dependent manner | ≥ 40%
O=C1c2c(O)cc(O)cc2O[C@H](c2ccc(O)c(O)c2)[C@H]1O [Taxifolin-aglycone, taxifolin] | increases in a concentration-dependent manner | ≥ 40%
